From patent publication US20230365627A1, “MACROCYCLIC PEPTIDE BORONATE IMMUNOMODULATORS” (Bristol-Myers Squibb Company, priority 2020, published 2023)
*1 amine or outer side, *2 acyl side, *3 side chain or, on linkers, in order; H or OH if unused. Where a SMILES comes first, the peptide text is derived from it. Bridges are numbered along the chain shown (N, C = ends). [ ]: non-standard residue; d: D form. Trp(1-CH2CO) = O=C([C@H](Cc1cn(CC(=O)[*:3])c2ccccc12)N[*:1])[*:2]; X25 = O=C([C@H](CNCc1cc(F)c(B(O)O[*:3])c(F)c1)N[*:1])[*:2]; X29 = COc1ccc(B(O)O[*:3])c(CNC[C@H](N[*:1])C(=O)[*:2])c1; X24 = O=C([C@H](CNCc1ccc(B(O)O[*:3])c(F)c1)N[*:1])[*:2]; X5 = O=C([C@H](CNCc1ccc(Cl)c(B(O)O[*:3])c1)N[*:1])[*:2]; X15 = COc1cccc(B(O)O[*:3])c1CNC[C@H](N[*:1])C(=O)[*:2]; X4 = O=C([C@H](CNCc1cc(Cl)ccc1B(O)O[*:3])N[*:1])[*:2]; X32 = O=C([C@H](CNCc1ccc(B(O)O[*:3])cc1)N[*:1])[*:2]; X2 = O=C([C@H](CNCc1ccc(B(O)O[*:3])cn1)N[*:1])[*:2]; X6 = O=C([C@H](CNCc1cccc(B(O)O[*:3])c1)N[*:1])[*:2]; X27 = O=C([C@H](CNCc1ccccc1B(O)O[*:3])N[*:1])[*:2]; Hyp = O=C(O)[C@@H]1C[C@@H](O)CN1; NMeNle = CCCC[C@H](NC)C(=O)O; NMeA = CN[C@@H](C)C(=O)O; Dab = NCC[C@H](N)C(=O)O

What follows are compounds tested against PD-1/PD-L1 (Homo sapiens (Human), UniProt Q9NZQ7) (assay: PD-1/PD-L1 Homogenous Time-Resolved Fluorescence (HTRF) binding assay). Settings: PD-L1-His 10 nM, PD-1-Ig 20 nM; read-out: HTRF IC50.
PD-1/PD-L1, sequence (Q9NZQ7 18-239): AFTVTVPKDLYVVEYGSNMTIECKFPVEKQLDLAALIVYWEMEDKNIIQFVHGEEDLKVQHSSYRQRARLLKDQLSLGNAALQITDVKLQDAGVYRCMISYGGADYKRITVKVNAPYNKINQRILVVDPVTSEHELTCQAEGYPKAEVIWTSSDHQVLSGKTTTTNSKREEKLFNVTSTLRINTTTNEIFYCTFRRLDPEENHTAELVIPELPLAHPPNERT
Description: Methods for Testing the Ability of Macrocyclic Peptides to Compete for the Binding of PD-1 to PD-L1 Using Homogenous Time-Resolved Fluorescence (HTRF) Binding Assays
The ability of the compounds of formula (I) to bind to PD-L1 was investigated using a PD-1/PD-L1 Homogenous Time-Resolved Fluorescence (HTRF) binding assay.
Homogenous Time-Resolved Fluorescence (HTRF) Binding Assay
The interaction of PD-1 and PD-L1 can be assessed using soluble, purified preparations of the extracellular domains of the two proteins. The PD-1 and PD-L1 protein extracellular domains were expressed as fusion proteins with detection tags, for PD-1, the tag was the Fc portion of Immunoglobulin (PD-1-Ig) and for PD-L1 it was the 6 histidine motif (PD-L1-His). All binding studies were performed in an HTRF assay buffer consisting of dPBS supplemented with 0.1% […] bovine serum albumin and 0.05% (v/v) Tween-20. For the h/PD-L1-His binding assay, inhibitors were pre-incubated with PD-L1-His (10 nM final) for 15 m in 4 μl of assay buffer, followed by addition of PD-1-Ig (20 nM final) in 1 μl of assay buffer and further incubation for 15 m. HTRF detection was achieved using europium cryptate-labeled anti-Ig (1 nM final) and allophycocyanin (APC) labeled anti-His (20 nM final). Antibodies were diluted in HTRF detection buffer and 5 μl was dispensed on top of the binding reaction. The reaction mixture was allowed to equilibrate for 30 minutes and the resulting signal (665 nm/620 nm ratio) was obtained using an EnVision fluorometer. Additional binding assays were established between the human proteins PD-1-Ig/PD-L2-His (20 & 5 nM, respectively) and CD80-His/PD-L1-Ig (100 & 10 nM, respectively).
Recombinant Proteins: Human PD-1 (25-167) with a C-terminal human Fc domain of immunoglobulin G (Ig) epitope tag [hPD-1 (25-167)-3S-IG] and human PD-L1 (18-239) with a C-terminal His epitope tag [hPD-L1(18-239)-TVMV-His] were expressed in HEK293T cells and purified sequentially by ProteinA affinity chromatography and size exclusion chromatography. Human PD-L2-His and CD80-His was obtained through commercial sources.
Table 1 lists the IC50 values for representative examples of this disclosure measured in the PD-1/PD-L1 Homogenous Time-Resolved Fluorescence (HTRF) binding assay.
`CCCC[C@H]1C(=O)N(C)[C@@H](CCCC)C(=O)N[C@@H](CC(C)C)C(=O)N[C@H](C(=O)NCC(N)=O)CSCC(=O)N[C@@H](Cc2ccc(O)cc2)C(=O)N(C)[C@@H](C)C(=O)N[C@@H](CC(N)=O)C(=O)N2CCC[C@H]2C(=O)N[C@H]2CNCc3cccc(c3)B(O)OC(=O)Cn3cc(c4ccccc43)C[C@H](NC(=O)[C@H](CCN)NC(=O)[C@H](Cc3c[nH]c4ccccc34)NC(=O)[C@@H]3C[C@@H](O)CN3C(=O)[C@H](CC(C)C)NC2=O)C(=O)N1C` [Example 1001] ({CH2CO}-Y[NMeA]NP[X6]L[Hyp]W[Dab][Trp(1-CH2CO)][NMeNle][NMeNle]LCG-NH2; ester 5-10; thioether N-14) was tested, and the IC50 was 3.8 nM. `CCCC[C@H]1C(=O)N(C)[C@@H](CCCC)C(=O)N[C@@H](CC(C)C)C(=O)N[C@H](C(=O)NCC(N)=O)CSCC(=O)N[C@@H](Cc2ccc(O)cc2)C(=O)N(C)[C@@H](C)C(=O)N[C@@H](CC(N)=O)C(=O)N2CCC[C@H]2C(=O)N[C@H]2CNCc3ccc(cc3)B(O)OC(=O)Cn3cc(c4ccccc43)C[C@H](NC(=O)[C@H](CCN)NC(=O)[C@H](Cc3c[nH]c4ccccc34)NC(=O)[C@@H]3C[C@@H](O)CN3C(=O)[C@H](CC(C)C)NC2=O)C(=O)N1C` [Example 1002] ({CH2CO}-Y[NMeA]NP[X32]L[Hyp]W[Dab][Trp(1-CH2CO)][NMeNle][NMeNle]LCG-NH2; ester 5-10; thioether N-14) was tested, and the IC50 was 3.5 nM. Compound `CCCC[C@H]1C(=O)N(C)[C@@H](CCCC)C(=O)N[C@@H](CC(C)C)C(=O)N[C@H](C(=O)NCC(N)=O)CSCC(=O)N[C@@H](Cc2ccc(O)cc2)C(=O)N(C)[C@@H](C)C(=O)N[C@@H](CC(N)=O)C(=O)N2CCC[C@H]2C(=O)N[C@H]2CNCc3ccccc3B(O)OC(=O)Cn3cc(c4ccccc43)C[C@H](NC(=O)[C@H](CCN)NC(=O)[C@H](Cc3c[nH]c4ccccc34)NC(=O)[C@@H]3C[C@@H](O)CN3C(=O)[C@H](CC(C)C)NC2=O)C(=O)N1C` [Example 1003] ({CH2CO}-Y[NMeA]NP[X27]L[Hyp]W[Dab][Trp(1-CH2CO)][NMeNle][NMeNle]LCG-NH2; ester 5-10; thioether N-14) has an IC50 of 7.8 nM. `CCCC[C@H]1C(=O)N(C)[C@@H](CCCC)C(=O)N[C@@H](CC(C)C)C(=O)N[C@H](C(=O)NCC(N)=O)CSCC(=O)N[C@@H](Cc2ccc(O)cc2)C(=O)N(C)[C@@H](C)C(=O)N[C@@H](CC(N)=O)C(=O)N2CCC[C@H]2C(=O)N[C@H]2CNCc3ccc(cc3)B3OB(O3)c3ccc(cc3)CNCC[C@H](NC(=O)[C@H](Cc3c[nH]c4ccccc34)NC(=O)[C@@H]3C[C@@H](O)CN3C(=O)[C@H](CC(C)C)NC2=O)C(=O)N[C@@H](Cc2cn(CC(=O)O)c3ccccc23)C(=O)N1C` [Example 1004] gave an IC50 of 6.3 nM. `CCCC[C@H]1C(=O)N(C)[C@@H](CCCC)C(=O)N[C@@H](CC(C)C)C(=O)N[C@H](C(=O)NCC(N)=O)CSCC(=O)N[C@@H](Cc2ccc(O)cc2)C(=O)N(C)[C@@H](C)C(=O)N[C@@H](CC(N)=O)C(=O)N2CCC[C@H]2C(=O)N[C@H]2CNCc3ccc(cc3)B3OB(O3)c3cccc(c3)CNCC[C@H](NC(=O)[C@H](Cc3c[nH]c4ccccc34)NC(=O)[C@@H]3C[C@@H](O)CN3C(=O)[C@H](CC(C)C)NC2=O)C(=O)N[C@@H](Cc2cn(CC(=O)O)c3ccccc23)C(=O)N1C` [Example 1005] gave an IC50 of 7.1 nM. In the case of `CCCC[C@H]1C(=O)N(C)[C@@H](CCCC)C(=O)N[C@@H](CC(C)C)C(=O)N[C@H](C(=O)NCC(N)=O)CSCC(=O)N[C@@H](Cc2ccc(O)cc2)C(=O)N(C)[C@@H](C)C(=O)N[C@@H](CC(N)=O)C(=O)N2CCC[C@H]2C(=O)N[C@H]2CNCc3cc(OC)ccc3B(O)OC(=O)Cn3cc(c4ccccc43)C[C@H](NC(=O)[C@H](CCN)NC(=O)[C@H](Cc3c[nH]c4ccccc34)NC(=O)[C@@H]3C[C@@H](O)CN3C(=O)[C@H](CC(C)C)NC2=O)C(=O)N1C` [Example 1006] ({CH2CO}-Y[NMeA]NP[X29]L[Hyp]W[Dab][Trp(1-CH2CO)][NMeNle][NMeNle]LCG-NH2; ester 5-10; thioether N-14), the IC50 is reported as 9 nM. Work on `CCCC[C@H]1C(=O)N(C)[C@@H](CCCC)C(=O)N[C@@H](CC(C)C)C(=O)N[C@H](C(=O)NCC(N)=O)CSCC(=O)N[C@@H](Cc2ccc(O)cc2)C(=O)N(C)[C@@H](C)C(=O)N[C@@H](CC(N)=O)C(=O)N2CCC[C@H]2C(=O)N[C@H]2CNCc3cc(F)c(c(F)c3)B(O)OC(=O)Cn3cc(c4ccccc43)C[C@H](NC(=O)[C@H](CCN)NC(=O)[C@H](Cc3c[nH]c4ccccc34)NC(=O)[C@@H]3C[C@@H](O)CN3C(=O)[C@H](CC(C)C)NC2=O)C(=O)N1C` [Example 1007] ({CH2CO}-Y[NMeA]NP[X25]L[Hyp]W[Dab][Trp(1-CH2CO)][NMeNle][NMeNle]LCG-NH2; ester 5-10; thioether N-14) yielded an IC50 of 9.9 nM. For `CCCC[C@H]1C(=O)N(C)[C@@H](CCCC)C(=O)N[C@@H](CC(C)C)C(=O)N[C@H](C(=O)NCC(N)=O)CSCC(=O)N[C@@H](Cc2ccc(O)cc2)C(=O)N(C)[C@@H](C)C(=O)N[C@@H](CC(N)=O)C(=O)N2CCC[C@H]2C(=O)N[C@H]2CNCc3cc(Cl)ccc3B(O)OC(=O)Cn3cc(c4ccccc43)C[C@H](NC(=O)[C@H](CCN)NC(=O)[C@H](Cc3c[nH]c4ccccc34)NC(=O)[C@@H]3C[C@@H](O)CN3C(=O)[C@H](CC(C)C)NC2=O)C(=O)N1C` [Example 1008] ({CH2CO}-Y[NMeA]NP[X4]L[Hyp]W[Dab][Trp(1-CH2CO)][NMeNle][NMeNle]LCG-NH2; ester 5-10; thioether N-14), the IC50 was 6.7 nM. `CCCC[C@H]1C(=O)N(C)[C@@H](CCCC)C(=O)N[C@@H](CC(C)C)C(=O)N[C@H](C(=O)NCC(N)=O)CSCC(=O)N[C@@H](Cc2ccc(O)cc2)C(=O)N(C)[C@@H](C)C(=O)N[C@@H](CC(N)=O)C(=O)N2CCC[C@H]2C(=O)N[C@H]2CNCc3ccc(c(F)c3)B(O)OC(=O)Cn3cc(c4ccccc43)C[C@H](NC(=O)[C@H](CCN)NC(=O)[C@H](Cc3c[nH]c4ccccc34)NC(=O)[C@@H]3C[C@@H](O)CN3C(=O)[C@H](CC(C)C)NC2=O)C(=O)N1C` [Example 1009] ({CH2CO}-Y[NMeA]NP[X24]L[Hyp]W[Dab][Trp(1-CH2CO)][NMeNle][NMeNle]LCG-NH2; ester 5-10; thioether N-14) showed an IC50 of 2.6 nM. `CCCC[C@H]1C(=O)N(C)[C@@H](CCCC)C(=O)N[C@@H](CC(C)C)C(=O)N[C@H](C(=O)NCC(N)=O)CSCC(=O)N[C@@H](Cc2ccc(O)cc2)C(=O)N(C)[C@@H](C)C(=O)N[C@@H](CC(N)=O)C(=O)N2CCC[C@H]2C(=O)N[C@H]2CNCc3ccc(cn3)B(O)OC(=O)Cn3cc(c4ccccc43)C[C@H](NC(=O)[C@H](CCN)NC(=O)[C@H](Cc3c[nH]c4ccccc34)NC(=O)[C@@H]3C[C@@H](O)CN3C(=O)[C@H](CC(C)C)NC2=O)C(=O)N1C` [Example 1010] ({CH2CO}-Y[NMeA]NP[X2]L[Hyp]W[Dab][Trp(1-CH2CO)][NMeNle][NMeNle]LCG-NH2; ester 5-10; thioether N-14) was tested, and the IC50 was 8.6 nM. In the case of `CCCC[C@H]1C(=O)N(C)[C@@H](CCCC)C(=O)N[C@@H](CC(C)C)C(=O)N[C@H](C(=O)NCC(N)=O)CSCC(=O)N[C@@H](Cc2ccc(O)cc2)C(=O)N(C)[C@@H](C)C(=O)N[C@@H](CC(N)=O)C(=O)N2CCC[C@H]2C(=O)N[C@H]2CNCc3ccc(Cl)c(c3)B(O)OC(=O)Cn3cc(c4ccccc43)C[C@H](NC(=O)[C@H](CCN)NC(=O)[C@H](Cc3c[nH]c4ccccc34)NC(=O)[C@@H]3C[C@@H](O)CN3C(=O)[C@H](CC(C)C)NC2=O)C(=O)N1C` [Example 1011] ({CH2CO}-Y[NMeA]NP[X5]L[Hyp]W[Dab][Trp(1-CH2CO)][NMeNle][NMeNle]LCG-NH2; ester 5-10; thioether N-14), the IC50 is reported as 6.4 nM. With `CCCC[C@H]1C(=O)N(C)[C@@H](CCCC)C(=O)N[C@@H](CC(C)C)C(=O)N[C@H](C(=O)NCC(N)=O)CSCC(=O)N[C@@H](Cc2ccc(O)cc2)C(=O)N(C)[C@@H](C)C(=O)N[C@@H](CC(N)=O)C(=O)N2CCC[C@H]2C(=O)N[C@H]2CNCc3c(OC)cccc3B(O)OC(=O)Cn3cc(c4ccccc43)C[C@H](NC(=O)[C@H](CCN)NC(=O)[C@H](Cc3c[nH]c4ccccc34)NC(=O)[C@@H]3C[C@@H](O)CN3C(=O)[C@H](CC(C)C)NC2=O)C(=O)N1C` [Example 1012] ({CH2CO}-Y[NMeA]NP[X15]L[Hyp]W[Dab][Trp(1-CH2CO)][NMeNle][NMeNle]LCG-NH2; ester 5-10; thioether N-14) the IC50 was 3 nM.
